According to ChEMBL document CHEMBL1201862, “PubChem BioAssay data set” (2004):
Calls of active or inactive are those of the source. Cut-off read from the data, not from the text of the source, for most assays here: actives have a measured EC50 and inactives only a lower limit.

How the values were obtained:
[1] = microbe, parasite or virus in culture; format: functional; settings: Mycobacterium tuberculosis
[2] = tested on: Streptococcus sp. 'group A'; assay: growth inhibition of control SK(-) GAS strain, dose response, counter-screen for streptokinase expression inhibitor project, luminescence, kanamycin, BacTiterGlo, confirmation (AID 1900); format: functional, organism-based; settings: read-out: EC50
[3] = tested on: Streptococcus; assay: Group A Streptococcus viability loss, dose response, counter-screen for streptokinase expression inhibitor project, luminescence, BacTiterGlo (AID 1915); format: functional, organism-based;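 note: potency for reduction of bacterial viability or growth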
[4] = cells; format: functional
[5] = cells; format: functional, cell-based
[6] = cells; format: functional, cell-based; remark: listed apart in the source
[7] = inhibitors of firefly luciferase expression or activity, dose response, H4 neuroglioma cells, luminescence (AID 1990); format: functional, cell-based
[8] = tested on: INS1; assay: beta cell apoptosis inhibitors, cytokine rescue, dose response, luminescence, retest (AID 449756); format: functional, cell-based; settings: Rattus norvegicus;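 note: cell death triggered by IL-1 beta plus TNF-alpha plus IFN-gamma mixture; protective hits raise ATP signal compared with cytokine alone wells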
[9] = Luminescence Cell-Based Dose Response HTS to Identify Inhibitors of 5'UTR Stem-Loop Driven Prion Protein mRNA Translation in H4 Neuroglioblastoma Cells. [Related pubchem assays: 1827 (Project Summary), 1813 (Primary HTS)]; format: functional
[10] = target: T1, Corticotropin-releasing factor receptor 2/Corticotropin-releasing factor-binding protein (Homo sapiens, UniProt P24387+Q13324); assay: activators of CRF receptor 2 with binding protein – uHTS hits, confirmation (AID 602473); format: functional; settings: read-out: EC50_Mean
T1 sequence (Q13324 whole entry): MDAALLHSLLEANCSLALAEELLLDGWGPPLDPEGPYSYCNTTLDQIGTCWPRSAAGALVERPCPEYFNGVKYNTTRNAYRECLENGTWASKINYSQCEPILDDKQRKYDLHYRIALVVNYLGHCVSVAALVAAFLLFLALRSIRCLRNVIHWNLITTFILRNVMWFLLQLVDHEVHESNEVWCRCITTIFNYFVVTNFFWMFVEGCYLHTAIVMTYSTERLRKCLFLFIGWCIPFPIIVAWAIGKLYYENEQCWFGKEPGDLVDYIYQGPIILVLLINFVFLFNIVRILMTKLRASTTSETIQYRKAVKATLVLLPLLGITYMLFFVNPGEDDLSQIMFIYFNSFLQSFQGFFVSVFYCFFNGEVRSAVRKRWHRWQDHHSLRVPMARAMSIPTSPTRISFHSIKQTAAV
T1 sequence (P24387 whole entry): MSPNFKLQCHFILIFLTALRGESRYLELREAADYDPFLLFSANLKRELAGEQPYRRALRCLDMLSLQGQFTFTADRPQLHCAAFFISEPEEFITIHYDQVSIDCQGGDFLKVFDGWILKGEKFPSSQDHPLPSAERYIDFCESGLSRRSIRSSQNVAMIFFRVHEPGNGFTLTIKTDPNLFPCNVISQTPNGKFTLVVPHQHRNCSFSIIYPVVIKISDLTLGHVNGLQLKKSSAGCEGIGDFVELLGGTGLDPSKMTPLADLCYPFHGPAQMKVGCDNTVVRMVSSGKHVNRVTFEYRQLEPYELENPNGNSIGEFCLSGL

[11] = inhibitors of SNCA 5'UTR-driven reporter translation, confirmation, H4 neuroglioma cells, luminescence (AID 1988); format: functional, cell-based
[12] = target: T2, Streptokinase A (Streptococcus pyogenes serotype M1, UniProt P10520); assay: S. pyogenes streptokinase expression inhibitors, potency, dose response, plasminogen activation absorbance, OD405 (AID 1914); format: functional, Streptococcus pyogenes M1 GAS;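 note: secreted streptokinase activity via plasminogen activation per viability signal from cell pellet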
T2 sequence (P10520 whole entry): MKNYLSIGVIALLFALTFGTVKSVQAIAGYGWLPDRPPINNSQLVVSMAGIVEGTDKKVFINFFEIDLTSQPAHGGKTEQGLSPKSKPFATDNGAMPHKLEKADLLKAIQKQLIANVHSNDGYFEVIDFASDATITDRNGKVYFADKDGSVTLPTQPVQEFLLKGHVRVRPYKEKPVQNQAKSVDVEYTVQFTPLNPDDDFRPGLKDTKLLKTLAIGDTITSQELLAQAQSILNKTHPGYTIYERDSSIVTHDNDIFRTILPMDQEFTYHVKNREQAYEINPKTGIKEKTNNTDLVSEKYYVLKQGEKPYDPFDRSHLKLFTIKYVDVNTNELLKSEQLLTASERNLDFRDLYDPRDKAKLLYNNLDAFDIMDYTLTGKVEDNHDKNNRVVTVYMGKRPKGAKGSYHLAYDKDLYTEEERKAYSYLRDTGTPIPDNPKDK

[13] = growth suppression of PTEN-null colon cells, dose response, cell-based, HCT116 PTEN knockout (AID 1047); format: functional;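 note: HCT116 colon tumor cells with PTEN knocked out; cells exposed to compound for 60 hours before readout; potency for loss of cell viability measured by luminescence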
[14] = growth suppression of beta-catenin-knockout colon cells, dose response, cell-based, HCT116, human colon tumor (AID 1045); format: functional;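 note: HCT116 colon tumor cells with beta catenin knocked out; cells exposed to compound for 60 hours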
[15] = target: T3, RNA-binding protein pos-1 (Caenorhabditis elegans, UniProt G5EF15); assay: inhibitors of POS-1/mex-3 RNA binding, dose response, biochemical, fluorescence polarization (AID 1964);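 note: purified POS-1 fused to maltose binding protein made in E. coli; potency of compounds blocking POS-1 binding to fluorescent RNA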
T3 sequence (G5EF15 whole entry): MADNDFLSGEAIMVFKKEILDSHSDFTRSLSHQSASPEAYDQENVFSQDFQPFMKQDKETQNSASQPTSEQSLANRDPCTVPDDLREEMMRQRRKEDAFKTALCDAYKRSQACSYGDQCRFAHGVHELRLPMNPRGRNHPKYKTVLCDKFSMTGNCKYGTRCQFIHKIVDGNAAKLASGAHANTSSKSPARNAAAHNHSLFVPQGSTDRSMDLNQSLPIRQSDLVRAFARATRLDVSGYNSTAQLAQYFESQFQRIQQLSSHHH

[16] = control 3'UTR Renilla luciferase suppression, dose response, counter-screen for Shn3 inhibitor project, cell-based, Clone20-Shn3RL, cherry-picked (AID 624133); format: functional
[17] = Shn3 3'UTR reporter inhibitors, dose response, cell-based, Clone20 osteoblasts, firefly luciferase, cherry-picked (AID 624132); format: functional;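 note: firefly luciferase luminescence from reporter carrying the Shn3 3'UTR in osteoblasts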
[18] = C. albicans growth with fluconazole, confirmation, fluorescence, retest (AID 2467); format: functional, cell-based
[19] = NIH-3T3 fibroblast cytotoxicity, dose response, cytotoxicity control, cell-based, fluorescence, Alamar Blue, secondary assay (AID 2327); format: functional;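 note: NIH-3T3 mouse fibroblasts cultured with fluconazole at 8 µg/mL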
[20] = ZM109 Env clade C HIV-1 fusion inhibitors, dose response, HeLa effector, CEM target cells, luciferase, cherry-pick (AID 652058); format: functional, cell-based
[21] = inhibitors of clade B AD8 Env fusion, dose response, cell-based, cherry-pick (AID 652062); format: functional;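 note: luciferase signal from cell-cell fusion driven by HIV-1 clade B AD8 Env; potency is for inhibitors of fusion seen as a drop in luminescence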
[22] = inhibitors of HIV Env-driven cell fusion, dose response, cherry-pick (AID 652057); format: functional, cell-based
[23] = target: Paired box protein Pax-8 (Homo sapiens, UniProt Q06710); assay: inhibitors of PAX8-driven TPO luciferase reporter, dose response, RMG-I cells, cherry-pick (AID 687027); format: functional, cell-based;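 note: luciferase reporter driven by Pax8 target thyroperoxidase promoter measured by SteadyGlo luminescence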
Paired box protein Pax-8, sequence (Q06710 whole entry): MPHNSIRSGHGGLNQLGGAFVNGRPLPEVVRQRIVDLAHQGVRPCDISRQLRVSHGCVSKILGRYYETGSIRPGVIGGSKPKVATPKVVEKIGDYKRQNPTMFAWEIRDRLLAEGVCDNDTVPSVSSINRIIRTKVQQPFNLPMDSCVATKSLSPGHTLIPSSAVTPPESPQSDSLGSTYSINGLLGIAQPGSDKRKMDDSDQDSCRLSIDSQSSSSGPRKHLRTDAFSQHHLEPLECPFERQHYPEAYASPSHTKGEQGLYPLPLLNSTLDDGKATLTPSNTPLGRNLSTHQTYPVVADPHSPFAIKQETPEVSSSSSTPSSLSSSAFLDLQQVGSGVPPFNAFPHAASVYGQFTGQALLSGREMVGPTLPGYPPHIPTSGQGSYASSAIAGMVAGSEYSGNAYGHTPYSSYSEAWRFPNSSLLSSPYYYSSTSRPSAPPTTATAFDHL

[24] = P. falciparum Dd2 growth inhibitors, dose response, SYBR Green, cherry-picked samples (AID 1159567); format: functional, cell-based
[25] = cytotoxicity toward NIH3T3 fibroblasts, dose response, counter-screen, cell-based, ATP luminescence, mouse fibroblasts (AID 2010); format: functional;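 note: cells exposed to compound for about 90 hours before reading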
[26] = inhibitors of intracellular T. cruzi replication, confirmation, NIH3T3 host cells, beta-gal luminescence (AID 2044); format: functional, cell-based;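 note: intracellular parasites grown in NIH/3T3 mouse fibroblasts as host cells; luminescent beta-galactosidase reporter signal from transgenic T. cruzi replicating inside host cells; inhibitors lower the luminescence signal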
[27] = Luminescence Cell-Based Dose Retest to Confirm Inhibitors of Cancer Stem Cells. [Related pubchem assays (depositor defined):AID2717, AID2721]; format: functional, Homo sapiens; settings: Homo sapiens

## NNc1nc2ccc(Cl)cc2s1
[1]
  CC50: > 40 µM (active)

## O=C(Nc1nnc(C2=COCCO2)o1)c1ccc(Cc2ccccc2)cc1
[2]
  EC50: 2.54 µM (active)
[3]
  EC50: 3.96 µM (active)
[4]
  IC50: 10.2 µM (active)
[1]
  CC50: > 40 µM (active)

## Cc1ccc(C(=O)CSc2cc(C)nc(O)n2)cc1
[5]
  EC50: > 350 µM (not active)
[6]
  EC50: > 350 µM (not active)

## CCOC(=O)c1[nH]c(CN2CCN(c3ccc(OC)cc3)CC2)c(C(=O)OCC)c1C
[1]
  CC50: > 40 µM (active)

## CCCCCCc1cc2cc(C(=O)Nc3cccc(OC)c3)c(=O)oc2cc1O
[7]
  EC50: > 120 µM (not active)
[8]
  AC50: 4.06 µM (active)
[9]
  EC50: 65.8 µM (active)
[10]
  EC50: > 53 µM (inactive)
[11]
  EC50: 16.6 µM (active)

## Oc1ccc(Cl)cc1CNCC1CCCO1 (centres undefined)
[5]
  EC50: > 350 µM (not active)
[6]
  EC50: > 350 µM (not active)

## CC1(C)CC(=O)C(CC2C(=O)CC(C)(C)CC2=O)C(=O)C1
[5]
  EC50: > 350 µM (not active)
[6]
  EC50: 98.1 µM (active)

## CC(C)CN1C(=S)SC(C)(C)C1n1oc(=O)n(-c2ccc(Cl)cc2)c1=O (centres undefined)
[12]
  EC50: 5.59 µM (active)
[13]
  EC50: 21.9 µM (active)
[2]
  EC50: 4.36 µM (active)
[3]
  EC50: 18.8 µM (active)
[14]
  EC50: 20.7 µM (active)

## CC(C(=O)N1CCOCC1)N1c2cccc3cccc(c23)S1(=O)=O (centres undefined)
[5]
  EC50: > 350 µM (not active)
[6]
  EC50: > 350 µM (not active)

## N=C(NOC(=O)C(c1ccccc1)c1ccccc1)c1cccnc1
[5]
  EC50: > 350 µM (not active)
[6]
  EC50: > 350 µM (not active)

## Cc1oc(-c2ccc(Cl)cc2)nc1C[S+]([O-])CC(=O)NCCN1CCCCCC1 (centres undefined)
[5]
  EC50: > 350 µM (not active)
[6]
  EC50: > 350 µM (not active)

## COC(=O)CNC(=O)COC(=O)C(Cc1ccccc1)NC(=O)c1ccco1 (centres undefined)
[10]
  EC50: > 53 µM (inactive)

## COc1ccccc1NC(=S)NC(=O)Cc1ccc(Cl)cc1
[10]
  EC50: 9.41 µM (active)

## O=C(NC(=S)N1CCc2ccccc21)c1ccc(Br)o1
[1]
  CC50: 39.7 µM (active)

## COc1ccc2nc(NC(=O)CSc3nccc(C)n3)sc2c1
[5]
  EC50: > 350 µM (not active)
[6]
  EC50: > 350 µM (not active)

## CCCCCN(C(=O)CCC(=O)OCC(=O)c1ccc(C(C)CC)cc1)c1c(N)n(CCCC)c(=O)[nH]c1=O (centres undefined)
[5]
  EC50: > 350 µM (not active)
[6]
  EC50: > 350 µM (not active)

## CCN1C(NCCc2ccc(Br)cc2)=N[C@@H](c2ccccc2)[C@H](C(=O)OC)[C@H]1C
[1]
  CC50: 34.3 µM (active)

## O=c1c(/C=C(\O)c2ccc(F)cc2)nc2ccccc2n1-c1ccccc1
[10]
  EC50: 7.18 µM (active)

## C=CCNc1oc(-c2ccc(-c3ccccc3)cc2)nc1C#N
[1]
  CC50: > 40 µM (active)

## COc1ccc(CC(=O)Nc2ccc(-c3noc(-c4ccc(Cl)cc4)n3)cc2)cc1
[13]
  EC50: 2.11 µM (active)
[14]
  EC50: 1.69 µM (active)

## O=C(NCc1ccco1)c1cc(-c2ccccc2)on1
[5]
  EC50: > 350 µM (not active)
[6]
  EC50: 62.4 µM (active)

## CCOc1ccc(N2C(=O)/C(=C/c3ccco3)C(=O)NC2=S)cc1
[15]
  EC50: 55.3 µM (active)

## CC(=O)O[C@H]1CC[C@@]2(C)C(=CC[C@H]3[C@@H]4CC[C@H](C(C)=O)[C@@]4(C)CC[C@@H]32)C1
[16]
  AC50: 29 µM (active)
[17]
  AC50: 28.5 µM (active)

## COc1cccc(/C=N/Nc2cc(-n3nc(C)cc3-c3ccccc3)ncn2)c1O
[5]
  EC50: > 350 µM (not active)
[18]
  EC50: 1.57 µM (active)
[19]
  EC50: 61 µM (active)
[6]
  EC50: > 350 µM (not active)

## COc1ccc2o/c(=N\c3ccccc3)c(-c3nc4ccccc4[nH]3)cc2c1
[13]
  EC50: 2.22 µM (active)
[14]
  EC50: 2.59 µM (active)

## CCCNC(=O)C[C@H]1CC[C@@H]2[C@@H](COc3ccc(NC(=O)c4cccc(C(F)(F)F)c4)cc3C(=O)N2C)O1
[20]
  AC50: 5.51 µM (active)
[21]
  AC50: 12.7 µM (active)
[22]
  AC50: 36 µM (active)

## C[C@H](CO)N1C[C@H](C)[C@@H](CN(C)Cc2ccc(Cl)c(Cl)c2)Oc2ccc(N(C)C)cc2C1=O
[20]
  AC50: 5.9 µM (active)
[21]
  AC50: 8.23 µM (active)
[22]
  AC50: 10.5 µM (active)

## C[C@H]1CN([C@@H](C)CO)S(=O)(=O)c2ccc(C#Cc3ccccc3F)cc2O[C@H]1CN(C)C(=O)c1ccc2c(c1)OCO2
[23]
  AC50: 5.76 µM (active)
[24]
  AC50: 5.07 µM (active)

## CCOC(=O)/C(=N/Nc1ccccc1)c1csc(Nc2ccccc2)n1
[12]
  EC50: > 150 µM (not active)
[25]
  EC50: > 30 µM (not active)
[26]
  EC50: 1.39 µM (active)
[2]
  EC50: 3.92 µM (active)
[3]
  EC50: 4.88 µM (active)
[27]
  AC50: 1.88 µM (active)
[1]
  CC50: > 40 µM (active)

## C[C@H](CO)N1C[C@H](C)[C@H](CN(C)CC2CC2)Oc2ccc(NS(=O)(=O)c3ccc(Cl)cc3)cc2CC1=O
[24]
  AC50: 5.58 µM (active)

## N#C[C@@H]1[C@@H](c2ccc(C#CC3CCCCC3)cc2)[C@H](CO)N1C(=O)Nc1ccc(F)cc1
[24]
  AC50: 5.12 µM (active)

## COCC(=O)Nc1ccc2c(c1)C(=O)N(C)C[C@@H](OC)[C@H](C)CN(CC1CCCCC1)[C@@H](C)CO2
[24]
  AC50: 6.65 µM (active)
